Assay results published in patent US7708990B2, “Coenzyme Q compositions persisting in blood” (Kaneka Corporation, priority 2004, dated 2010).

Test: Plasma coenzyme Q10 levels after oral administration to rats (HPLC assay)
Assay type: in vivo, male SD strain rats
Conditions: plasma coenzyme Q10 (reduced + oxidized), oral 100 mg/kg in soybean oil
Method: A solution of reduced coenzyme Q10 (containing 1% by weight of oxidized coenzyme Q10) in soybean oil (reduced coenzyme Q10/soybean oil solution=20 mg/ml) was orally administered to male SD strain rats (6 weeks of age) at a dose of reduced coenzyme Q10 (containing 1% by weight of oxidized coenzyme Q10) of 100 mg/kg and, after 0.5, 1, 2, 3, 4, 5, 6, 8, 12 and 24 hours after administration, blood samples were collected and used for assaying plasma coenzyme Q10 (reduced coenzyme Q10 and oxidized coenzyme Q10) (n=4). Plasma coenzyme Q10 was assayed by HPLC. Thus, coenzyme Q7 (0.003 mg), ethanol (1 ml), distilled water (1 ml) and ferric chloride (0.01%) were added to each rat plasma sample (0.2 ml) and, after mixing up, hexane (3 ml) was added thereto and coenzyme Q10 was extracted with shaking. […]
Reduced coenzyme Q10 (containing 3% by weight of oxidized coenzyme Q10) was administered in the same manner as in Example 1, and plasma coenzyme Q10 levels were determined.
Oxidized coenzyme Q10 was administered in the same manner as in Example 1, and plasma coenzyme Q10 levels were determined.
Reduced coenzyme Q10 (containing 5% by weight of oxidized coenzyme Q10) was administered in the same manner as in Example 1, and plasma coenzyme Q10 levels were determined.

Cmax (n=4): 1.73 µg/mL
AUC (n=4, sampling up to 24 hours): 12.9 µg·h/mL
Compound: COC1=C(OC)C(=O)C(C/C=C(\C)CC/C=C(\C)CC/C=C(\C)CC/C=C(\C)CC/C=C(\C)CC/C=C(\C)CC/C=C(\C)CC/C=C(\C)CC/C=C(\C)CCC=C(C)C)=C(C)C1=O [Comparative Example 1, Oxidized coenzyme Q10]
